Measured values as given in PubChem BioAssay AID330 (DTP/NCI, 2004).
Where “and” joins values, the source holds several entries; their conditions need not be identical. Equal entries are not always repeated. Toxic doses and inconclusive results are not listed.

System: P388 leukemia ip, CD2F1 mice, survival T/C
Assay: NCI In Vivo Anticancer Drug Screen. Data for tumor model P388 Leukemia (intraperitoneal) in CD2F1 (CDF1) mice
Settings: endpoint: median survival time, higher = longer survival
Summary of the method: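 Mice carrying the transplanted tumor received test compound or vehicle. Survival was recorded in each group, and the value is the treated-group measurement divided by that of the vehicle-treated control group.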

[1] = dose: 50.0 mg/kg/injection, schedule: Q01DX005 (ip), vehicle: Klucel (hydroxypropylcellulose) (HPC)
[2] = dose: 100.0 mg/kg/injection, schedule: Q01DX005 (ip), vehicle: Klucel (hydroxypropylcellulose) (HPC)
[3] = dose: 200.0 mg/kg/injection, schedule: Q01DX005 (ip), vehicle: Klucel (hydroxypropylcellulose) (HPC)
[4] = dose: 50.0 mg/kg/injection, schedule: Q01DX009 (ip), vehicle: saline
[5] = dose: 100.0 mg/kg/injection, schedule: Q01DX009 (ip), vehicle: saline
[6] = dose: 200.0 mg/kg/injection, schedule: Q01DX009 (ip), vehicle: saline
[7] = dose: 25.0 mg/kg/injection, schedule: Q01DX001 (ip), vehicle: saline with Tween-80
[8] = dose: 50.0 mg/kg/injection, schedule: Q01DX001 (ip), vehicle: saline with Tween-80
[9] = dose: 60.0 mg/kg/injection, schedule: Q01DX005 (ip), vehicle: saline
[10] = dose: 120.0 mg/kg/injection, schedule: Q01DX005 (ip), vehicle: saline
[11] = dose: 50.0 mg/kg/injection, schedule: Q01DX009 (ip), vehicle: saline with Tween-80
[12] = dose: 100.0 mg/kg/injection, schedule: Q01DX009 (ip), vehicle: saline with Tween-80
[13] = dose: 200.0 mg/kg/injection, schedule: Q01DX009 (ip), vehicle: saline with Tween-80
[14] = dose: 25.0 mg/kg/injection, schedule: Q01DX009 (ip), vehicle: saline
[15] = dose: 100.0 mg/kg/injection, schedule: Q04DX002 (ip), vehicle: Klucel (hydroxypropylcellulose) (HPC)
[16] = dose: 200.0 mg/kg/injection, schedule: Q04DX002 (ip), vehicle: Klucel (hydroxypropylcellulose) (HPC)
[17] = dose: 400.0 mg/kg/injection, schedule: Q04DX002 (ip), vehicle: Klucel (hydroxypropylcellulose) (HPC)
[18] = dose: 50.0 mg/kg/injection, schedule: Q01DX005 (ip), vehicle: saline with Tween-80
[19] = dose: 100.0 mg/kg/injection, schedule: Q01DX005 (ip), vehicle: saline with Tween-80

## CC1(C)N=C(N)N=C(N)N1c1ccc(C(C#N)CCCc2ccccc2)cc1 (stereo unspecified)
dose: 7.5 mg/kg/injection, schedule: Q01DX005 (ip), vehicle: Klucel (hydroxypropylcellulose) (HPC)
  T/C: 100 % of control
dose: 15.0 mg/kg/injection, schedule: Q01DX005 (ip), vehicle: Klucel (hydroxypropylcellulose) (HPC)
  T/C: 101 % of control
dose: 30.0 mg/kg/injection, schedule: Q01DX005 (ip), vehicle: Klucel (hydroxypropylcellulose) (HPC)
  T/C: 103 % of control

## COc1ccc2c(C)cc(N/N=C/c3ccc([N+](=O)[O-])o3)nc2c1
[1]
  T/C: 100 % of control
[2]
  T/C: 101 % of control
[3]
  T/C: 90 % of control

## Cc1cc(OC(=O)c2c(-c3ccccc3)noc2C)n(-c2ccc(NC(=O)c3c(-c4ccccc4)noc3C)cc2)n1
[4]
  T/C: 96 % of control
[5]
  T/C: 100 % of control
[6]
  T/C: 101 % of control

## CCCCCCCCCCCCOC(=O)c1ccc(N)cc1
dose: 50.0 mg/kg/injection, schedule: Q01DX009 (ip), vehicle: Klucel (hydroxypropylcellulose) (HPC)
  T/C: 98 % of control
dose: 100.0 mg/kg/injection, schedule: Q01DX009 (ip), vehicle: Klucel (hydroxypropylcellulose) (HPC)
  T/C: 101 % of control
dose: 200.0 mg/kg/injection, schedule: Q01DX009 (ip), vehicle: Klucel (hydroxypropylcellulose) (HPC)
  T/C: 95 % of control

## COP(=O)(O)OC.[Ti]
[7]
  T/C: 100 % of control
[8]
  T/C: 100 % of control
dose: 100.0 mg/kg/injection, schedule: Q01DX001 (ip), vehicle: saline with Tween-80
  T/C: 96 % of control

## C[C@@H]1C(=O)C[C@H]2C(C)(C)CCC[C@]2(C)[C@@]1(O)CCc1ccoc1
dose: 25.0 mg/kg/injection, schedule: Q01DX005 (ip), vehicle: Klucel (hydroxypropylcellulose) (HPC)
  T/C: 100 % of control
[1]
  T/C: 100 % of control
[2]
  T/C: 100 % of control
[3]
  T/C: 96 % of control

## CC(C(=O)O)N1CN(/N=C/c2ccc(Cl)cc2Cl)C(N)=NC1(O)CCl (stereo unspecified)
[9]
  T/C: 101 % of control
[10]
  T/C: 101 % of control
dose: 240.0 mg/kg/injection, schedule: Q01DX005 (ip), vehicle: saline
  T/C: 115 % of control

## CCOC(=O)CC(=O)c1cccnc1
dose: 50.0 mg/kg/injection, schedule: Q04DX003 (ip), vehicle: suspension in saline
  T/C: 113 % of control
dose: 100.0 mg/kg/injection, schedule: Q04DX003 (ip), vehicle: suspension in saline
  T/C: 104 % of control
dose: 200.0 mg/kg/injection, schedule: Q04DX003 (ip), vehicle: suspension in saline
  T/C: 114 % of control
dose: 400.0 mg/kg/injection, schedule: Q04DX003 (ip), vehicle: suspension in saline
  T/C: 113 % of control

## CN1NC(C)(c2ccccn2)SC1=S (stereo unspecified)
[11]
  T/C: 98 % of control
[12]
  T/C: 91 % of control
[13]
  T/C: 90 % of control

## C[S+](C)c1ccc(Cl)cc1
dose: 12.5 mg/kg/injection, schedule: Q01DX009 (ip), vehicle: saline
  T/C: 95 % of control
[14]
  T/C: 91 % of control
[4]
  T/C: 108 % of control

## [CH3][Sn]([CH3])([S]CCS(=O)(=O)O)[S]CCS(=O)(=O)O
dose: 15.0 mg/kg/injection, schedule: Q01DX005 (ip), vehicle: saline
  T/C: 120 % of control
dose: 30.0 mg/kg/injection, schedule: Q01DX005 (ip), vehicle: saline
  T/C: 98 % of control
[9]
  T/C: 107 % of control
[10]
  T/C: 121 % of control

## CNS(=O)Nc1ccnc(=O)[nH]1 (stereo unspecified)
dose: 50.0 mg/kg/injection, schedule: Q04DX002 (ip), vehicle: Klucel (hydroxypropylcellulose) (HPC)
  T/C: 99 % of control
[15]
  T/C: 100 % of control
[16]
  T/C: 106 % of control
[17]
  T/C: 100 % of control

## N/C=N/O
[14]
  T/C: 101 % of control
[4]
  T/C: 101 % of control
[5]
  T/C: 111 % of control and 122 % of control
dose: 174.0 mg/kg/injection, schedule: Q01DX009 (ip), vehicle: saline
  T/C: 123 % of control
dose: 260.0 mg/kg/injection, schedule: Q01DX009 (ip), vehicle: saline
  T/C: 90 % of control
dose: 400.0 mg/kg/injection, schedule: Q01DX009 (ip), vehicle: saline
  T/C: 161 % of control

## O=C(O)C(Cc1ccc(O)cc1)NS(=O)(=O)Cc1ccccc1 (stereo unspecified)
dose: 100.0 mg/kg/injection, schedule: Q01DX009 (ip), vehicle: DMSO
  T/C: 99 % of control
dose: 200.0 mg/kg/injection, schedule: Q01DX009 (ip), vehicle: DMSO
  T/C: 92 % of control

## c1ccc(C2(c3ccccc3)CCc3ccccc3O2)cc1
dose: 100.0 mg/kg/injection, schedule: Q04DX003 (ip), vehicle: Klucel (hydroxypropylcellulose) (HPC)
  T/C: 105 % of control
dose: 200.0 mg/kg/injection, schedule: Q04DX003 (ip), vehicle: Klucel (hydroxypropylcellulose) (HPC)
  T/C: 99 % of control
dose: 400.0 mg/kg/injection, schedule: Q04DX003 (ip), vehicle: Klucel (hydroxypropylcellulose) (HPC)
  T/C: 99 % of control

## CCOC(=O)C1(c2cc(NS(=O)(=O)c3ccccc3)ccc2O)CCCCC1=O (stereo unspecified)
dose: 12.5 mg/kg/injection, schedule: Q01DX001 (ip), vehicle: saline with Tween-80
  T/C: 104 % of control
[7]
  T/C: 104 % of control
[8]
  T/C: 100 % of control

## COC1OC(CO)C2OC(C)(C)OC12 (stereo unspecified)
dose: 50.0 mg/kg/injection, schedule: Q01DX005 (ip), vehicle: suspension in saline
  T/C: 101 % of control
dose: 100.0 mg/kg/injection, schedule: Q01DX005 (ip), vehicle: suspension in saline
  T/C: 106 % of control
dose: 200.0 mg/kg/injection, schedule: Q01DX005 (ip), vehicle: suspension in saline
  T/C: 101 % of control

## CCOc1nc(N)nc(C)c1N=Nc1ccc(Cl)cc1Cl
dose: 60.0 mg/kg/injection, schedule: Q01DX005 (ip), vehicle: Klucel + Tween-80
  T/C: 100 % of control
dose: 120.0 mg/kg/injection, schedule: Q01DX005 (ip), vehicle: Klucel + Tween-80
  T/C: 110 % of control

## NS(=O)(=O)Oc1ccccc1C(=O)Oc1ccccc1Cl
dose: 60.0 mg/kg/injection, schedule: Q01DX005 (ip), vehicle: Klucel (hydroxypropylcellulose) (HPC)
  T/C: 99 % of control
dose: 120.0 mg/kg/injection, schedule: Q01DX005 (ip), vehicle: Klucel (hydroxypropylcellulose) (HPC)
  T/C: 99 % of control
dose: 240.0 mg/kg/injection, schedule: Q01DX005 (ip), vehicle: Klucel (hydroxypropylcellulose) (HPC)
  T/C: 94 % of control

## C=C1C(C(=O)OCC)=NNc2c(C(N)=O)ncn21
[15]
  T/C: 96 % of control
[16]
  T/C: 101 % of control
[17]
  T/C: 104 % of control

## OCC1OC(c2ccc(O)cc2O)C(O)C1O (stereo unspecified)
[4]
  T/C: 102 % of control
[5]
  T/C: 96 % of control
dose: 100.0 mg/kg/injection, schedule: Q04DX003 (ip), vehicle: saline
  T/C: 95 % of control
[6]
  T/C: 105 % of control
dose: 200.0 mg/kg/injection, schedule: Q04DX003 (ip), vehicle: saline
  T/C: 98 % of control
dose: 400.0 mg/kg/injection, schedule: Q04DX003 (ip), vehicle: saline
  T/C: 95 % of control

## [O-][n+]1c(C2=C(N3CCCC3)c3ccccc3C2)c(Cl)c(Cl)c(Cl)c1C1=C(N2CCCC2)c2ccccc2C1
dose: 25.0 mg/kg/injection, schedule: Q01DX005 (ip), vehicle: saline with Tween-80
  T/C: 102 % of control
[18]
  T/C: 103 % of control
[19]
  T/C: 93 % of control

## O=C(Cc1ccccc1)CC(CC(=O)Cc1ccccc1)c1ccccc1
[18]
  T/C: 94 % of control
[19]
  T/C: 89 % of control
dose: 200.0 mg/kg/injection, schedule: Q01DX005 (ip), vehicle: saline with Tween-80
  T/C: 103 % of control

## CC1CCC2CC(C3CCCC[N-]3)[N-]C(N)C2C1.CC1CCC2CC(C3CCCC[N-]3)[N-]C(N)C2C1.O=[N+]([O-])O.[Cu+] (stereo unspecified)
dose: 12.5 mg/kg/injection, schedule: Q04DX002 (ip), vehicle: saline
  T/C: 97 % of control
dose: 12.5 mg/kg/injection, schedule: Q04DX002 (ip), vehicle: suspension in saline
  T/C: 100 % of control
dose: 25.0 mg/kg/injection, schedule: Q04DX002 (ip), vehicle: saline
  T/C: 104 % of control
dose: 25.0 mg/kg/injection, schedule: Q04DX002 (ip), vehicle: suspension in saline
  T/C: 104 % of control and 118 % of control
dose: 50.0 mg/kg/injection, schedule: Q04DX002 (ip), vehicle: suspension in saline
  T/C: 111 % of control and 114 % of control
dose: 100.0 mg/kg/injection, schedule: Q04DX002 (ip), vehicle: suspension in saline
  T/C: 103 % of control and 105 % of control and 120 % of control

## CC1(C)COC(CCCCCO)=N1
[11]
  T/C: 103 % of control
[12]
  T/C: 97 % of control
[13]
  T/C: 92 % of control
